From US20110183980A1, “O-BENZYL NICOTINAMIDE ANALOGS AS MGLUR5 POSITIVE ALLOSTERIC MODULATORS” (priority 2009, published 2011) come the findings set out here.

For the assay, the target named is T1, rat mGluR5 (Rattus norvegicus, UniProt P31424).
T1 construct: expressed in transfected cells; host or cells: human embryonic kidney (HEK) cells
Kind of assay: Potentiation of glutamate response, Ca2+ fluorescence (FDSS) in HEK cells transfected with rat mGluR5. To be noted: potentiation of mGluR5 response to glutamate, read-out: EC50. It counts as cell-based. Here is the method: Human embryonic kidney (HEK) cells transfected with rat mGluR5 were plated in clear bottom assay plates for assay in a Functional Drug Screening System (FDSS). The cells were loaded with a Ca^2+-sensitive fluorescent dye (e.g., Fluo-4), and the plates were washed and placed in the FDSS instrument. After establishment of a fluorescence baseline for twelve seconds, the compounds of the present invention were added to the cells, and the response in cells was measured. Five minutes later, an mGluR5 agonist (e.g., glutamate, 3,5-dihydroxyphenylglycine, or quisqualate) was added to the cells, and the response of the cells was measured. Potentiation of the agonist response of mGluR5 by the compounds in the present invention was observed as an increase in response to non-maximal concentrations of agonist (here, glutamate) in the presence of compound compared to the response to agonist in the absence of compound.
The above described assay operated in two modes. In the first mode, a range of concentrations of the present compounds were added to cells, followed by a single fixed concentration of agonist. If a compound acted as a potentiator, an EC50 value for potentiation and a maximum extent of potentiation by the compound at this concentration of agonist was determined by non-linear curve fitting. In the second mode, several fixed concentrations of the present compounds were added to various wells on a plate, followed by a range of concentrations of agonist for each concentration of present compound; the EC50 values for the agonist at each concentration of compound were determined by non-linear curve fitting. A decrease in the EC50 value of the agonist with increasing concentrations of the present compounds (a leftward shift of the agonist concentration-response curve) is an indication of the degree of mGluR5 potentiation at a given concentration of the present compound. An increase in the EC50 value of the agonist with increasing concentrations of the present compounds (a rightward shift of the agonist concentration-response curve) is an indication of the degree of mGluR5 antagonism at a given concentration of the present compound. The second mode also indicates whether the present compounds also affect the maximum response to mGluR5 to agonists.

Like-named read-outs stand apart in the source and are kept apart here.

T1 sequence (P31424 21-1203): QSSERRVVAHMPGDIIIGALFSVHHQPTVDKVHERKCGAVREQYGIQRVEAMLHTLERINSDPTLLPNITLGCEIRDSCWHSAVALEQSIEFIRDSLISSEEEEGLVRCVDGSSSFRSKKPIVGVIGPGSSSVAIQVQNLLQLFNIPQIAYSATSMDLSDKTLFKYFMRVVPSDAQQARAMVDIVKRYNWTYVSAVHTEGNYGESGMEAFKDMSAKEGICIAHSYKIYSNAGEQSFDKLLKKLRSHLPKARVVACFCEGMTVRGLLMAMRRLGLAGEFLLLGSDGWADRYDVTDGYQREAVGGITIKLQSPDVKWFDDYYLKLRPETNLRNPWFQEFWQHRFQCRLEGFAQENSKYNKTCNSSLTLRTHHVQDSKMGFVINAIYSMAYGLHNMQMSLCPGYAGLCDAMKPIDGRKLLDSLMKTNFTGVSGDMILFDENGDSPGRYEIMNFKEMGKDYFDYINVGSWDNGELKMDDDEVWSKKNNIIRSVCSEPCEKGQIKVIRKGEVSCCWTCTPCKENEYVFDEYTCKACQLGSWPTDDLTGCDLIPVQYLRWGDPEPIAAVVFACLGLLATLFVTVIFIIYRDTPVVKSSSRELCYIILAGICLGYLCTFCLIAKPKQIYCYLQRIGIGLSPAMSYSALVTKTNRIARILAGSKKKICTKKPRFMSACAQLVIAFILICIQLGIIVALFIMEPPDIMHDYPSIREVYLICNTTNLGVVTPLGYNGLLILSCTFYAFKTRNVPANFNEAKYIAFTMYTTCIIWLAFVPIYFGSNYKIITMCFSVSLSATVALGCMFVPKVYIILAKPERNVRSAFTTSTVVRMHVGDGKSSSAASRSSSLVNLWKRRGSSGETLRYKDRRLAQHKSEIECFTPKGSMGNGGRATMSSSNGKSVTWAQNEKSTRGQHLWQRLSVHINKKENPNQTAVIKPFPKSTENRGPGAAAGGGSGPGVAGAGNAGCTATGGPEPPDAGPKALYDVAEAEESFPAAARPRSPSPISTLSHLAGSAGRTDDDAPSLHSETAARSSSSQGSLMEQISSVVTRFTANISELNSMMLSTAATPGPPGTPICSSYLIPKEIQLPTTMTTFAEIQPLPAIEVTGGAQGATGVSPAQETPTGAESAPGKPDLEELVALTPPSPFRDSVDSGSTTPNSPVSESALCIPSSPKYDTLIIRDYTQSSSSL

In the case of `O=C(NCc1ccccn1)c1ccc(OCc2ccccc2)nc1` [Example 1.2a.12], the EC50 (Table 1) came out at 3400 nM. In the case of `CC1CCCCC1NC(=O)c1ccc(OCc2ccccc2)nc1` (stereo not shown), the EC50 (Table 2) was found to be 36 nM. `O=C(NC1CCC1)c1ccc(OCc2cccc(F)c2)nc1` [Example 1.2c.19]: the EC50 (Table 1) is 120 nM. On the same count and under the same terms, the same measure for `O=C(Nc1ccccn1)c1ccc(OCc2cccnc2)nc1` [Example 1.2h.1]: 2900 nM; for `C[C@@H](NC(=O)c1ccc(OCc2ccccc2)nc1)C1CCCCC1` [Example 1.2a.19]: 40 nM. On the same count and under the same terms, for `O=C(Nc1ccccc1)c1ccc(OCc2ccccc2)nc1` [Example 1.2a.14] the value was 380 nM. Take `CC(C)(C)CCNC(=O)c1cnc(OCc2ccncc2)c(Br)c1`: the EC50 (Table 2) turned out to be 3900 nM.

With `Cc1nc(OCc2ccccc2)ccc1C(=O)NCCC(C)(C)C` [Example 1.2b.3], the EC50 (Table 1) amounted to 400 nM.

For `O=C(Nc1ccccc1F)c1ccc(OCc2cccc(F)c2)nc1` [Example 1.2c.9], the EC50 (Table 1) came out at 210 nM. Still for that read-out and setting: for `O=C(NCC1CCOCC1)c1ccc(OCc2cccc(F)c2)nc1` [Example 1.2c.17] the value was 1100 nM. `CC(NC(=O)c1ccc(OCc2cccc(F)c2)nc1)C(C)(C)CO` (stereo not shown): the EC50 (Table 2) came out at 1000 nM.

With `O=C(NC1CCC1)c1ccc(OCc2ccccc2F)nc1` [Example 1.2f.2], the EC50 (Table 1) was determined as 270 nM. In the case of `CC(C)(C)CCNC(=O)c1cnc(OCc2cccc(F)c2)c(C#N)c1`, the EC50 (Table 2) was 3900 nM. Still for that read-out and setting: the same measure for `C[C@H](CN1CCC(C(F)(F)F)CC1)NC(=O)c1ccc(OCc2cccc(F)c2)nc1`: above 10000 nM. Regarding `Cc1cccc(COc2ccc(C(=O)NC3CCCCC3)cn2)c1` [Example 1.2g.3], the EC50 (Table 1) is 100 nM. Same read-out and setting: the same measure for `O=C(NCC1CCCCC1)c1ccc(OCc2cccc(F)c2)nc1` [Example 1.2c.16]: 230 nM; for `O=C(NC1CCCCC1)c1ccc(OCc2ccsc2)nc1` [Example 2.3a.8]: 120 nM.

With `Cc1cc(C(=O)Nc2ccc(F)cc2F)cnc1OCc1ccncc1`, the EC50 (Table 2) is 680 nM. The same measure, in the same setting: the same measure for `C[C@@H](NC(=O)c1cnc(OCc2cccc(F)c2)c(C(F)(F)F)c1)C1CCCCC1`: above 10000 nM; for `C[C@@H](NC(=O)c1cnc(OCc2ccncc2)cc1C(F)(F)F)C(C)(C)C`: 3900 nM. The same measure, in the same setting: for `Cc1cc(OCc2ccncc2)ncc1C(=O)Nc1ccc(F)cc1F` the value was 490 nM. `O=C(NC1CCOCC1)c1ccc(OCc2ccccc2)nc1` [Example 1.2a.23]: where the note is “Table 1”, the EC50 turned out to be 3900 nM.

As for `CCCCOc1ccc(C(=O)NC2CCCCC2)cn1` [Example 1.2j.2], the EC50 (Table 1) came to 2400 nM. Same read-out and setting: for `O=C(Nc1ccncn1)c1ccc(OCc2ccccc2)nc1` [Example 1.2a.13] the value was 1100 nM; for `O=C(NCC1CCOCC1)c1ccc(OCc2ccccc2)nc1` [Example 1.2a.21], 3900 nM; for `CCCCOc1ccc(C(=O)NC(C)(C)C)cn1` [Example 1.2j.3], at least 10000 nM. Take `O=C(Nc1ccccc1O)c1ccc(OCc2ccccc2)nc1`: where the note is “Table 2”, the EC50 was determined as 520 nM.

On to `O=C(Nc1cccc(F)c1)c1ccc(OCc2cccc(F)c2)nc1` [Example 1.2c.10], for which the EC50 (Table 1) was 460 nM. Same read-out and setting: for `O=C(NCC1CC1)c1ccc(OCc2ccccc2)nc1` [Example 1.2a.7] the value was 450 nM; for `Cc1cccc(COc2ccc(C(=O)Nc3ccccn3)cn2)c1` [Example 1.2g.1], 240 nM.

On to `O=C(Nc1nccs1)c1ccc(OCc2ccccc2)nc1` [Example 1.2a.18], for which the EC50 (Table 1) was found to be 520 nM. Take `COc1ccccc1NC(=O)c1ccc(OCc2ccccc2)nc1`: the concentration giving a half-maximal response (EC50) (Table 2) stood at 3400 nM. `O=C(NC1CCC1)c1ccc(OCc2ccccc2)nc1` [Example 1.2a.9]: the EC50 (Table 1) was 340 nM.

Take `C[C@@H](NC(=O)c1ccc(OCc2cccc(F)c2)nc1)C(C)(C)C`: for the setting “Table 2”, the EC50 came to 2.2 nM.

Take `CC(C)[C@@H](C)NC(=O)c1ccc(OCc2cccc(F)c2)nc1`: where the note is “Table 2”, the EC50 is 21 nM. Still for that read-out and setting: the same measure for `C[C@H](CN1CCC(F)(F)C1)NC(=O)c1ccc(OCc2cccc(F)c2)nc1`: above 10000 nM. The same measure, in the same setting: the same measure for `CC(C)(C)CCNC(=O)c1ccc(OCc2cc(F)cc(Br)c2)nc1`: above 10000 nM. Same read-out and setting: the same measure for `O=C(NCC1CCC1)c1ccc(OCc2ccccc2)nc1`: 130 nM; for `C[C@]1(O)CCC[C@@H]1NC(=O)c1ccc(OCc2cccc(F)c2)nc1`: above 10000 nM. For `COCC(C)NC(=O)c1ccc(OCc2cccc(F)c2)nc1` (stereo not shown), for the setting “Table 2”, the EC50 was 3000 nM.

Broadly, the EC50 is the concentration giving half of the maximal effect.
